These results are taken from patent US9676714B2, “Sulfonylindole derivatives and method for preparing the same” (Daewoong Pharmaceutical Co., Ltd., priority 2013, dated 2017).

Each structure is given as a SMILES string. Structures can show the parent of a compound that is named as a salt.

T1 sequence (P19156 whole entry): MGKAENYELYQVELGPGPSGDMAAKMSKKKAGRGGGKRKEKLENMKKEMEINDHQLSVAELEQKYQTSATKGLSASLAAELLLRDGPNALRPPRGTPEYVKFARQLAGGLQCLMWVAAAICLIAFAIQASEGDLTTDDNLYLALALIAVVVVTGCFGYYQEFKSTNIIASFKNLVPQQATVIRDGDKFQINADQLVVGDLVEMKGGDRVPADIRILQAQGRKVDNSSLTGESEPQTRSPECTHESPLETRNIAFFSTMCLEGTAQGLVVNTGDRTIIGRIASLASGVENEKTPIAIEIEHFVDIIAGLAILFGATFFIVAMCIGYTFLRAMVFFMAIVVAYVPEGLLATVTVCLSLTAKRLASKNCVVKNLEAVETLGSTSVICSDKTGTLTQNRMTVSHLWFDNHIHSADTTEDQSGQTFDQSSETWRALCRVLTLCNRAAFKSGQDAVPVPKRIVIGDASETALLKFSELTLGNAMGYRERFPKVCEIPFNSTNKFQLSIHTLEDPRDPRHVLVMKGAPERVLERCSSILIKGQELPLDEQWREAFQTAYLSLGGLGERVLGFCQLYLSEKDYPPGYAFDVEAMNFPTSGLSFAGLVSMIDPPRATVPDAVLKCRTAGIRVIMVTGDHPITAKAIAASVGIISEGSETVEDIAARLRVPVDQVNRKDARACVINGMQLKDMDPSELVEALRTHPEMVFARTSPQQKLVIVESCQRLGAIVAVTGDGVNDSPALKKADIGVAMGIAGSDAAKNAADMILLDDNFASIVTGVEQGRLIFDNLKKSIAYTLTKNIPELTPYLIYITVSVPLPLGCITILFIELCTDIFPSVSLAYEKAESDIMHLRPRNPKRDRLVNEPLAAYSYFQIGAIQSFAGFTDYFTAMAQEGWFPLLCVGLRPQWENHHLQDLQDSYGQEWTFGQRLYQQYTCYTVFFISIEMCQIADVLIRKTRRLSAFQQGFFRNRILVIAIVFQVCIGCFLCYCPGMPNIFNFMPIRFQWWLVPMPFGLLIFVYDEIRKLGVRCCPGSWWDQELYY
T1 sequence (P18434 whole entry partner): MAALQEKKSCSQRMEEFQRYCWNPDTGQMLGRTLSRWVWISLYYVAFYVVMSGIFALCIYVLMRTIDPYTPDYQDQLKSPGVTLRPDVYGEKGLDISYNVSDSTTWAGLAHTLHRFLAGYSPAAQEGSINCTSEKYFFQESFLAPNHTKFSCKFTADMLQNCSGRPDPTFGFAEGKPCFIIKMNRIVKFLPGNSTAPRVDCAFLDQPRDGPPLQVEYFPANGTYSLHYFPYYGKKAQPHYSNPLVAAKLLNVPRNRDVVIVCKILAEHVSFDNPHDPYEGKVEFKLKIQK

The experiment addresses T1, proton pump (H+/K+-ATPase) (Sus scrofa, UniProt P19156).
T1 construct: Gastric vesicles were prepared from hog stomach via centrifugal separation; from tissue; host or cells: hog stomach (gastric vesicles, method of Rabon et al. 1988)
Description: Measurement of inhibitory effects on proton pump (H+/K+-ATPase) activities. The experiment is classed as biochemical. Particulars: hog gastric vesicles, K+-specific H+/K+-ATPase activity, Tris-HCl buffer pH 7.4, 37° C. for 40 minutes, malachite green Pi readout. Put shortly:
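Hog gastric vesicles in 60 mmol/l Tris-HCl pH 7.4 with 0.5% DMSO were treated with compounds at room temperature; reaction was started with 10 μl of 10 mmol/l ATP stock. Released Pi was read at 570 nm, K+-specific activity taken as the ±K+ difference. IC50 from 4-parameter logistic fit.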
`CNCc1cn(S(=O)(=O)c2cccnc2)c2cc(Nc3ccc(F)nc3C)ccc12` [Example 116, N-(6-fluoro-2-methylpyridin-3-yl)-3-((methylamino)methyl)-1-(pyridin-3-ylsulfonyl)-1H-indol-6-amine hydrochloride] came in with a 50% inhibitory concentration (IC50) of 1570 nM. The result for `CNCc1cn(S(=O)(=O)c2cccnc2)c2cc(Nc3ccc(Cl)nc3C)ccc12` [Example 118, N-(6-chloro-2-methylpyridin-3-yl)-3-((methylamino)methyl)-1-(pyridin-3-ylsulfonyl)-1H-indol-6-amine hydrochloride] reads 480 nM. Take `CNCc1cn(S(=O)(=O)c2cccnc2)c2cc(Nc3ccc(Cl)nc3Cl)ccc12` [Example 119, N-(2,6-dichloropyridin-3-yl)-3-((methylamino)methyl)-1-(pyridin-3-ylsulfonyl)-1H-indol-6-amine hydrochloride]: the IC50 amounted to 480 nM. Consider `CNCc1cn(S(=O)(=O)c2cccnc2)c2cc(Nc3ccc(Cl)nc3C(F)(F)F)ccc12` [Example 121, N-(6-chloro-2-(trifluoromethyl)pyridin-3-yl)-3-((methylamino)methyl)-1-(pyridin-3-ylsulfonyl)-1H-indol-6-amine hydrochloride], for which half-maximal inhibition (IC50) required 440 nM.

Compound `CNCc1cn(S(=O)(=O)c2cccnc2)c2cc(Nc3ccc(C(F)(F)F)nc3C)ccc12` [Example 124, N-(2-methyl-6-(trifluoromethyl)pyridin-3-yl)-3-((methylamino)methyl)-1-(pyridin-3-ylsulfonyl)-1H-indol-6-amine hydrochloride] showed an IC50 of 580 nM. The compound `CNCc1cn(S(=O)(=O)c2cccnc2)c2cc(Nc3cc(Cl)cnc3C)ccc12` [Example 126, N-(5-chloro-2-methylpyridin-3-yl)-3-((methylamino)methyl)-1-(pyridin-3-ylsulfonyl)-1H-indol-6-amine hydrochloride] returned a 50% inhibitory concentration (IC50) of 510 nM. On to `CNCc1cn(S(=O)(=O)c2cccnc2)c2cc(Nc3c(C)ccnc3Cl)ccc12` [Example 127, N-(2-chloro-4-methylpyridin-3-yl)-3-((methylamino)methyl)-1-(pyridin-3-ylsulfonyl)-1H-indol-6-amine hydrochloride], for which the IC50 turned out to be 640 nM. The result for `CNCc1cn(S(=O)(=O)c2cccnc2)c2cc(Nc3ccncc3Cl)ccc12` [Example 128, N-(3-chloropyridin-4-yl)-3-((methylamino)methyl)-1-(pyridin-3-ylsulfonyl)-1H-indol-6-amine hydrochloride] reads 1220 nM; that for `CNCc1cn(S(=O)(=O)c2cccnc2)c2cc(Nc3ccncc3C(F)(F)F)ccc12` [Example 129, 3-((methylamino)methyl)-1-(pyridin-3-ylsulfonyl)-N-(3-(trifluoromethyl)pyridin-4-yl)-1H-indol-6-amine hydrochloride], 10200 nM; that for `CNCc1cn(S(=O)(=O)c2cccnc2)c2cc(Nc3ccnc(OC)c3Cl)ccc12` [Example 130, N-(3-chloro-2-methoxypyridin-4-yl)-3-((methylamino)methyl)-1-(pyridin-3-ylsulfonyl)-1H-indol-6-amine hydrochloride], 20000 nM. With `CNCc1cn(S(=O)(=O)c2cccnc2)c2cc(Nc3ccnc(OC)c3Br)ccc12` [Example 131, N-(3-bromo-2-methoxypyridin-4-yl)-3-((methylamino)methyl)-1-(pyridin-3-ylsulfonyl)-1H-indol-6-amine hydrochloride], inhibition was half-maximal at 780 nM (IC50). On to `CNCc1cn(S(=O)(=O)c2cccnc2)c2cc(Nc3ccnc(Cl)c3Cl)ccc12` [Example 132, N-(2,3-dichloropyridin-4-yl)-3-((methylamino)methyl)-1-(pyridin-3-ylsulfonyl)-1H-indol-6-amine hydrochloride], for which the concentration for half-maximal inhibition (IC50) was 730 nM. `CNCc1cn(S(=O)(=O)c2cccnc2)c2cc(Nc3c(F)cnc(F)c3F)ccc12` [Example 134, 3-((methylamino)methyl)-1-(pyridin-3-ylsulfonyl)-N-(2,3,5-trifluoropyridin-4-yl)-1H-indol-6-amine hydrochloride] gave a half-maximal inhibitory concentration (IC50) of 2050 nM. Next, `CNCc1cn(S(=O)(=O)c2cccnc2)c2cc(Nc3ccc4ncccc4c3)ccc12` [Example 135, N-3-((methylamino)methyl)-1-(pyridin-3-ylsulfonyl)-1H-indol-6-yl)quinolin-6-amine hydrochloride]: 3000 nM. Compound `CNCc1cn(S(=O)(=O)c2cccc(F)c2)c2cc(Nc3ccc(C)cc3F)ccc12` [Example 136, N-(2-fluoro-4-methylphenyl)-1-((3-fluorophenyl)sulfonyl)-3-((methylamino)methyl)-1H-indol-6-amine hydrochloride] displayed an IC50 of 710 nM. Next, `CNCc1cn(S(=O)(=O)c2cccc(F)c2)c2cc(Nc3ccc(C)cc3Cl)ccc12` [Example 137, N-(2-chloro-4-methylphenyl)-1-((3-fluorophenyl)sulfonyl)-3-((methylamino)methyl)-1H-indol-6-amine hydrochloride]: 60 nM; `CNCc1cn(S(=O)(=O)c2cccc(F)c2)c2cc(Nc3ccc(OC(F)(F)F)cc3C)ccc12` [Example 140, 1-((3-fluorophenyl)sulfonyl)-N-(2-methyl-4-(trifluoromethoxy)phenyl)-3-((methylamino)methyl)-1H-indol-6-amine hydrochloride]: 190 nM; `CNCc1cn(S(=O)(=O)c2cccc(Cl)c2)c2cc(Nc3ccc(C)cc3F)ccc12` [Example 146, 1-((3-chlorophenyl)sulfonyl)-N-(2-fluoro-4-methylphenyl)-3-((methylamino)methyl)-1H-indol-6-amine hydrochloride]: 150 nM. As to `CNCc1cn(S(=O)(=O)c2cccc(Cl)c2)c2cc(Nc3ccc(C)cc3Cl)ccc12` [Example 147, N-(2-chloro-4-methylphenyl)-1-((3-chlorophenyl)sulfonyl)-3-((methylamino)methyl)-1H-indol-6-amine hydrochloride], inhibition was half-maximal at 90 nM (IC50).

`CNCc1cn(S(=O)(=O)c2cccc(Cl)c2)c2cc(Nc3ccc(F)cc3Cl)ccc12` [Example 149, N-(2-chloro-4-fluorophenyl)-1-((3-chlorophenyl)sulfonyl)-3-((methylamino)methyl)-1H-indol-6-amine hydrochloride] registered an IC50 of 10 nM. `CNCc1cn(S(=O)(=O)c2cccc(Cl)c2)c2cc(Nc3ccc(Cl)cc3F)ccc12` [Example 150, N-(4-chloro-2-fluorophenyl)-1-((3-chlorophenyl)sulfonyl)-3-((methylamino)methyl)-1H-indol-6-amine hydrochloride]: the 50% inhibitory concentration (IC50) stood at 570 nM.

As for `CNCc1cn(S(=O)(=O)c2cccc(Cl)c2)c2cc(Nc3ccc(Cl)cc3C(F)(F)F)ccc12` [Example 151, N-(4-chloro-2-(trifluoromethyl)phenyl)-1-((3-chlorophenyl)sulfonyl)-3-((methylamino)methyl)-1H-indol-6-amine hydrochloride], 510 nM corresponded to half-maximal inhibition (IC50). Compound `CNCc1cn(S(=O)(=O)c2cccc(Cl)c2)c2cc(Nc3ccc(C(F)(F)F)cc3Cl)ccc12` [Example 152, N-(2-chloro-4-(trifluoromethyl)phenyl)-1-((3-chlorophenyl)sulfonyl)-3-((methylamino)methyl)-1H-indol-6-amine hydrochloride] came in with a concentration for half-maximal inhibition (IC50) of 350 nM.

For the compound `CNCc1cn(S(=O)(=O)c2cccc(Cl)c2)c2cc(Nc3ccc(OC(F)(F)F)cc3C)ccc12` [Example 154, 1-((3-chlorophenyl)sulfonyl)-N-(2-methyl-4-(trifluoromethoxy)phenyl)-3-((methylamino)methyl)-1H-indol-6-amine hydrochloride], inhibition was half-maximal at 480 nM (IC50).

In the case of `CNCc1cn(S(=O)(=O)c2cccc(Cl)c2)c2cc(Nc3ccc(OC(F)(F)F)cc3F)ccc12` [Example 155, 1-((3-chlorophenyl)sulfonyl)-N-(2-fluoro-4-(trifluoromethoxy)phenyl)-3-((methylamino)methyl)-1H-indol-6-amine hydrochloride], the IC50 came to 440 nM. The result for `CNCc1cn(S(=O)(=O)c2cccc(Cl)c2)c2cc(Nc3ccc(C)c(F)c3F)ccc12` [Example 156, 1-((3-chlorophenyl)sulfonyl)-N-(2,3-difluoro-4-methylphenyl)-3-((methylamino)methyl)-1H-indol-6-amine hydrochloride] reads 380 nM; that for `CNCc1cn(S(=O)(=O)c2cccc(Cl)c2)c2cc(Nc3cccnc3OC)ccc12` [Example 157, 1-((3-chlorophenyl)sulfonyl)-N-(2-methoxypyridin-3-yl)-3-((methylamino)methyl)-1H-indol-6-amine hydrochloride], 380 nM. `CNCc1cn(S(=O)(=O)c2cccc(Cl)c2)c2cc(Nc3ccc(C)nc3F)ccc12` [Example 158, 1-((3-chlorophenyl)sulfonyl)-N-(2-fluoro-6-methylpyridin-3-yl)-3-((methylamino)methyl)-1H-indol-6-amine hydrochloride] displayed a 50% inhibitory concentration (IC50) of 410 nM.

The compound `CNCc1cn(S(=O)(=O)c2cccc(Cl)c2)c2cc(Nc3ccc(Cl)nc3Cl)ccc12` [Example 159, 1-((3-chlorophenyl)sulfonyl)-N-(2,6-dichloropyridin-3-yl)-3-((methylamino)methyl)-1H-indol-6-amine hydrochloride] gave an IC50 of 340 nM.

The compound `CNCc1cn(S(=O)(=O)c2cccc(Cl)c2)c2cc(Nc3ccc(C(F)(F)F)nc3Cl)ccc12` [Example 161, N-(2-chloro-6-(trifluoromethyl)pyridin-3-yl)-1-((3-chlorophenyl)sulfonyl)-3-((methylamino)methyl)-1H-indol-6-amine hydrochloride] registered an IC50 of 460 nM. `CNCc1cn(S(=O)(=O)c2cccc(OC)c2)c2cc(Nc3ccc(C)cc3F)ccc12` [Example 162, N-(2-fluoro-4-methylphenyl)-1-((3-methoxyphenyl)sulfonyl)-3-((methylamino)methyl)-1H-indol-6-amine hydrochloride] had an IC50 of 20 nM.

What is called IC50 is the point on the concentration scale where inhibition reaches its midpoint.
